# Test results: ChEMBL document CHEMBL1137358, “Synthetic inhibitors of cytochrome P-450 2A6: inhibitory activity, difference spectra, mechanism of inhibition, and protein cocrystallization” (J Med Chem, 2006)
# pKi: −log10 of the molar value.
# How the values were obtained:
# CYP2A6 over CYP2E1 = assay: Selectivity for CYP2A6 over CYP2E1; conditions: human
# CYP2A6 over CYP2C19 = assay: Selectivity for CYP2A6 over CYP2C19; conditions: human
# Cytochrome P450 2D6 = Cytochrome P450 2D6 (Homo sapiens, UniProt P10635); assay: Inhibition of human CYP2D6
# Cytochrome P450 2C9 = Cytochrome P450 2C9 (Homo sapiens, UniProt P11712); assay: Inhibition of human CYP2C9
# Cytochrome P450 2C19 = Cytochrome P450 2C19 (Homo sapiens, UniProt P33261); assay: Inhibition of human CYP2C19
# Cytochrome P450 2E1 = Cytochrome P450 2E1 (Homo sapiens, UniProt P05181); assay: Inhibition of human CYP2E1
# [1] = (§1) Stability in mouse liver microsome
# CYP2A6 over CYP2B6 = assay: Selectivity for CYP2A6 over CYP2B6
# Cytochrome P450 2B6 = target: T1, Cytochrome P450 2B6 (Homo sapiens, UniProt P20813); assay: Inhibition of human CYP2B6
# T1 sequence (P20813 whole entry): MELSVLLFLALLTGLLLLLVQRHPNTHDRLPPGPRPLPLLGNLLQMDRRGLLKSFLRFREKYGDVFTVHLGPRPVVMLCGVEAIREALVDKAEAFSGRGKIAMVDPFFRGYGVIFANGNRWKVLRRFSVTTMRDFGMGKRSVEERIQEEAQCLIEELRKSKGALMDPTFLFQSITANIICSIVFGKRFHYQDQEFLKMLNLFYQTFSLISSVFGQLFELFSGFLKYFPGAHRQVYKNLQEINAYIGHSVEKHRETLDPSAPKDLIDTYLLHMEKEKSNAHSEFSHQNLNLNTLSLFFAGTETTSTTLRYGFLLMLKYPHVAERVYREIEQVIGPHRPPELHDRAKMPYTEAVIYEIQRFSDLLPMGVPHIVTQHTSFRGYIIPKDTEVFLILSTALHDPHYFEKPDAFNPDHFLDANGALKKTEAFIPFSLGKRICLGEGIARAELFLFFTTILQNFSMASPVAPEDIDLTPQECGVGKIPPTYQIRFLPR
# CYP2A6 over CYP3A4 = assay: Selectivity for CYP2A6 over CYP3A4; conditions: human
# Cytochrome P450 3A4 = Cytochrome P450 3A4 (Homo sapiens, UniProt P08684); assay: Inhibition of human CYP3A4
# CYP2A6 over CYP2C9 = assay: Selectivity for CYP2A6 over CYP2C9; conditions: human
# CYP2A6 over CYP2D6 = assay: Selectivity for CYP2A6 over CYP2D6; conditions: human
# Cytochrome P450 2A6 = target: T2, Cytochrome P450 2A6 (Homo sapiens, UniProt P11509); assay: Inhibition of human CYP2A6
# T2 sequence (P11509 whole entry): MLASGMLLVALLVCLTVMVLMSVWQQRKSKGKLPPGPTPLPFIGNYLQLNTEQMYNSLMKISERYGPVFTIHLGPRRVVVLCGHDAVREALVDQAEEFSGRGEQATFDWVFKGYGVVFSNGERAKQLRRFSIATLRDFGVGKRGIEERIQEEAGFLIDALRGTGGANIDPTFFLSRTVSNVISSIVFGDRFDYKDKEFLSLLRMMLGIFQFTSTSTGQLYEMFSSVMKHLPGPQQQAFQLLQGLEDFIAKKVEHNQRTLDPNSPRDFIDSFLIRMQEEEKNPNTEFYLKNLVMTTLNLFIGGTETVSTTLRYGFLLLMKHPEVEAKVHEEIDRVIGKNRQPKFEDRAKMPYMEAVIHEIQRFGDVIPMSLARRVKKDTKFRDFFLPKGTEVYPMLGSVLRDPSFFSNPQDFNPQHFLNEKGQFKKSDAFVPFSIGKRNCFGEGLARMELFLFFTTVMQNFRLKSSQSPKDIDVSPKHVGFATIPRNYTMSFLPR
# [2] = (§2) Stability in human liver microsome
# Mus musculus = species on record: Mus musculus; assay: as §1; conditions: microsomes
# Liver microsomes = assay: as §2; conditions: microsomes
# Cytochrome P450 2C9, sequence (P11712 whole entry): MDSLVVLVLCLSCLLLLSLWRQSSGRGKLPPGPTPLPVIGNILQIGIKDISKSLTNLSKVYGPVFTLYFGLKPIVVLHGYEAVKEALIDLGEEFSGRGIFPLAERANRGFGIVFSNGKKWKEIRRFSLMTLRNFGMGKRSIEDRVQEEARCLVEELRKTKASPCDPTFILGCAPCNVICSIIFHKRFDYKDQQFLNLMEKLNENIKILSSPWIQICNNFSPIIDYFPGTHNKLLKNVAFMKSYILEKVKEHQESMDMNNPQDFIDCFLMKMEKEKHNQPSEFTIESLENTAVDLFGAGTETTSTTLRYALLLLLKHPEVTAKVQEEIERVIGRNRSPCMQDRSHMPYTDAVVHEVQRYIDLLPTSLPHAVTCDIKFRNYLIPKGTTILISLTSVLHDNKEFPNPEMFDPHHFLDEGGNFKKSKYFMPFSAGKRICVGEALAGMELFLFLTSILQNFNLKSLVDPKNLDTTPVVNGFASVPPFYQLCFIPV
# Cytochrome P450 3A4, sequence (P08684 whole entry): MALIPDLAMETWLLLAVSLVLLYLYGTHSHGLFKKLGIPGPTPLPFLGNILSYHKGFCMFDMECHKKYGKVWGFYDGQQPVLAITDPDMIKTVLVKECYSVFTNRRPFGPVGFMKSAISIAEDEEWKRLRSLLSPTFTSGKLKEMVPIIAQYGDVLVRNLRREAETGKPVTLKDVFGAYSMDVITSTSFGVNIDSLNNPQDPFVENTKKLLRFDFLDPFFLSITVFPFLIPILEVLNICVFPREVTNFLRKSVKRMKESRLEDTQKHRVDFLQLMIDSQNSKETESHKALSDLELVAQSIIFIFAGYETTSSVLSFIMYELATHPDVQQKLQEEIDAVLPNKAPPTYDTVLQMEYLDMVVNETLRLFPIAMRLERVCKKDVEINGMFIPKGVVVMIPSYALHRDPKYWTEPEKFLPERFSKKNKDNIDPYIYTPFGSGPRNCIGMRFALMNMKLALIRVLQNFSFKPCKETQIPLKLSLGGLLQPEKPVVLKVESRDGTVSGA
# Cytochrome P450 2C19, sequence (P33261 whole entry): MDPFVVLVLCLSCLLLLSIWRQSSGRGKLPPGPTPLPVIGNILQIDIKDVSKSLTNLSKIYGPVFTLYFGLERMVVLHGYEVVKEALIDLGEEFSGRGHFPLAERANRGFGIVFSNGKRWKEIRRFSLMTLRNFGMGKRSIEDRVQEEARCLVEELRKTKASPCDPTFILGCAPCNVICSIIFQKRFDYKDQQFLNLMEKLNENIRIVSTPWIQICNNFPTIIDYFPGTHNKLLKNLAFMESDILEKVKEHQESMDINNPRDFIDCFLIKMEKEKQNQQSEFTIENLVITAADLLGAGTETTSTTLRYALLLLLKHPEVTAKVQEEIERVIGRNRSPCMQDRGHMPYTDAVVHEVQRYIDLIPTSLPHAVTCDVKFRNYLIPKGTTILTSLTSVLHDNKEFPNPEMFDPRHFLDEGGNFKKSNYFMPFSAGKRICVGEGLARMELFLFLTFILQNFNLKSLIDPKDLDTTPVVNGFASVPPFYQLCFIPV
# Cytochrome P450 2E1, sequence (P05181 whole entry): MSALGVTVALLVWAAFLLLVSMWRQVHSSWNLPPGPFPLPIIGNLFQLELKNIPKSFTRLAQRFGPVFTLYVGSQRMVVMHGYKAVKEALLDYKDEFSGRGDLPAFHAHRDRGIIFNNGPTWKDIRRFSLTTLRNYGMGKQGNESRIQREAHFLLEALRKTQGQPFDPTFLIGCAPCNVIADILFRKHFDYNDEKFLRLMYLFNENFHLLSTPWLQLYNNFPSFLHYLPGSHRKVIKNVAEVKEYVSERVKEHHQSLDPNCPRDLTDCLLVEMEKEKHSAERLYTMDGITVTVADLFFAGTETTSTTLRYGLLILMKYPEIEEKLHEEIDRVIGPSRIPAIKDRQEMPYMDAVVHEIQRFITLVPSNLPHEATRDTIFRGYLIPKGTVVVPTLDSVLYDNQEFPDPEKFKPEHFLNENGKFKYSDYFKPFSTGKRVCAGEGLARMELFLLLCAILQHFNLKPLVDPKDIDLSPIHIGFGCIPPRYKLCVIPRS
# Cytochrome P450 2D6, sequence (P10635 whole entry): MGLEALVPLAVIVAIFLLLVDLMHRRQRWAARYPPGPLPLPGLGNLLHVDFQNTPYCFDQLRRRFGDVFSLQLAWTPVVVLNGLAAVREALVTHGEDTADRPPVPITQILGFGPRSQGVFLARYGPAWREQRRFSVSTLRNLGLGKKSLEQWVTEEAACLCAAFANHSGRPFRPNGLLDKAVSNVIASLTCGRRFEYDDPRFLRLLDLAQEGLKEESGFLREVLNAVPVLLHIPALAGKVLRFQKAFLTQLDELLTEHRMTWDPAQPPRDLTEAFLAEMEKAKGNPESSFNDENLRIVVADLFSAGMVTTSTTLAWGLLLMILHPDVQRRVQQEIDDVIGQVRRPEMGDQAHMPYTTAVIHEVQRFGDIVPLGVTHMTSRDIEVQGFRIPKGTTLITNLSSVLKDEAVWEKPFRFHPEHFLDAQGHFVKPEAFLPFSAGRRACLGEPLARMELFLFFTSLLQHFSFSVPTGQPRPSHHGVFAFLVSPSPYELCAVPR
SMILES,selectivity ratio (CYP2A6 over CYP2E1),selectivity ratio (CYP2A6 over CYP2C19),pKi (Cytochrome P450 2D6),pKi (Cytochrome P450 2C9),pKi (Cytochrome P450 2C19),pKi (Cytochrome P450 2E1),half-life ([1]; liver microsomes) [h],selectivity ratio (CYP2A6 over CYP2B6),pKi (Cytochrome P450 2B6),selectivity ratio (CYP2A6 over CYP3A4),pKi (Cytochrome P450 3A4),selectivity ratio (CYP2A6 over CYP2C9),selectivity ratio (CYP2A6 over CYP2D6),pKi (Cytochrome P450 2A6),half-life ([2]; liver microsomes) [h],half-life ([1]; microsomes) [h],half-life ([2]; microsomes) [h],Stability (Mus musculus),Stability (Liver microsomes)
NCc1cc(-c2cccnc2)no1,105,74.3,< 3.40,4.84,4.56,4.41,6.42,91.1,4.47,> 541,< 3.40,39.1,> 541,6.40,6.68,–,–,–,–
c1cncc(-c2cc[nH]n2)c1,0.4,8.5,3.78,3.76,3.96,5.28,1.55,5.6,4.15,> 15.6,< 3.40,13.4,12.9,4.89,1.65,–,–,–,–
NCc1ccc(-c2cccnc2)s1,–,–,4.07,–,–,4.70,–,–,–,–,4.53,–,–,–,–,1,0.65,–,–
CN(C)Cc1ccc(-c2cccnc2)o1,–,–,3.90,3.95,4.10,< 3.40,–,–,< 3.40,–,3.83,–,–,–,–,–,–,Stable,–
Cn1cnc(-c2cccnc2)c1,5,–,3.99,4.40,4.21,5.70,8.02,–,4.14,–,3.88,–,–,6.40,–,–,–,–,Stable
c1cncc(-c2ccsc2)c1,> 286,81,3.91,4.32,4.25,< 3.40,–,42,4.52,40,4.55,69,> 286,6.15,4.52,–,–,Stable,–
Cc1nccn1-c1cccnc1,–,–,–,–,–,–,–,–,–,–,–,–,–,–,2.22,–,–,Stable,–
CNCc1ccc(-c2cccnc2)s1,–,–,4.25,4.47,4.52,< 3.40,–,–,< 3.40,–,< 3.40,–,–,6.22,1.6,–,–,Stable,–
NCc1cc(-c2cccnc2)n[nH]1,> 690,143,4.53,4.62,4.38,< 3.40,2.82,114,4.48,> 690,< 3.40,83.4,103,6.52,3.97,–,–,–,–
c1ccc(-c2ccsc2)cc1,> 32.3,> 32.3,< 3.40,3.95,3.97,5.01,1.53,0.8,4.85,> 32.3,< 3.40,> 32.3,> 32.3,5.48,5.25,–,–,–,–
Cc1csc(-c2cccnc2)n1,2.3,> 32.3,< 3.40,4.29,< 3.40,5.02,–,10.6,4.36,5.6,4.64,12.6,> 32.3,5.39,–,0.817,0.6,–,–
